The nature of data set [1]: Emission and excitation spectra. Type of data set: physicochemical. As to the method: Measurement of the emission and excitation spectra for the compound of Example 1 was performed to confirm the corresponding range for fluorescent visualization in cancer cells and to confirm the fluorescent property of the compound.
The target in data set [2] is HeLa nuclear extracts (histone deacetylase). Type of data set: biochemical. Particulars: pan-HDAC inhibition assay. The procedure: Reactions were stopped after 15 min with Fluor de Lys Developer. […] The reaction was performed in triplicate for each sample. Each point represents the mean±SD of replicates.
The target of the next data set is HDAC1 (Homo sapiens, UniProt Q13547). The experiment in a line: HDAC isoform inhibition assay (Fluor de Lys, purified protein). The class given is biochemical.
Another data set addresses HDAC2 (Homo sapiens, UniProt Q92769). The data set is described as above. Type of data set: biochemical.
A further data set addresses HDAC3 (Homo sapiens, UniProt O15379). The description is as above. The class given is biochemical.
A further data set addresses T1, HDAC6 (Homo sapiens, UniProt Q9UBN7).
T1 sequence (Q9UBN7 1-1215): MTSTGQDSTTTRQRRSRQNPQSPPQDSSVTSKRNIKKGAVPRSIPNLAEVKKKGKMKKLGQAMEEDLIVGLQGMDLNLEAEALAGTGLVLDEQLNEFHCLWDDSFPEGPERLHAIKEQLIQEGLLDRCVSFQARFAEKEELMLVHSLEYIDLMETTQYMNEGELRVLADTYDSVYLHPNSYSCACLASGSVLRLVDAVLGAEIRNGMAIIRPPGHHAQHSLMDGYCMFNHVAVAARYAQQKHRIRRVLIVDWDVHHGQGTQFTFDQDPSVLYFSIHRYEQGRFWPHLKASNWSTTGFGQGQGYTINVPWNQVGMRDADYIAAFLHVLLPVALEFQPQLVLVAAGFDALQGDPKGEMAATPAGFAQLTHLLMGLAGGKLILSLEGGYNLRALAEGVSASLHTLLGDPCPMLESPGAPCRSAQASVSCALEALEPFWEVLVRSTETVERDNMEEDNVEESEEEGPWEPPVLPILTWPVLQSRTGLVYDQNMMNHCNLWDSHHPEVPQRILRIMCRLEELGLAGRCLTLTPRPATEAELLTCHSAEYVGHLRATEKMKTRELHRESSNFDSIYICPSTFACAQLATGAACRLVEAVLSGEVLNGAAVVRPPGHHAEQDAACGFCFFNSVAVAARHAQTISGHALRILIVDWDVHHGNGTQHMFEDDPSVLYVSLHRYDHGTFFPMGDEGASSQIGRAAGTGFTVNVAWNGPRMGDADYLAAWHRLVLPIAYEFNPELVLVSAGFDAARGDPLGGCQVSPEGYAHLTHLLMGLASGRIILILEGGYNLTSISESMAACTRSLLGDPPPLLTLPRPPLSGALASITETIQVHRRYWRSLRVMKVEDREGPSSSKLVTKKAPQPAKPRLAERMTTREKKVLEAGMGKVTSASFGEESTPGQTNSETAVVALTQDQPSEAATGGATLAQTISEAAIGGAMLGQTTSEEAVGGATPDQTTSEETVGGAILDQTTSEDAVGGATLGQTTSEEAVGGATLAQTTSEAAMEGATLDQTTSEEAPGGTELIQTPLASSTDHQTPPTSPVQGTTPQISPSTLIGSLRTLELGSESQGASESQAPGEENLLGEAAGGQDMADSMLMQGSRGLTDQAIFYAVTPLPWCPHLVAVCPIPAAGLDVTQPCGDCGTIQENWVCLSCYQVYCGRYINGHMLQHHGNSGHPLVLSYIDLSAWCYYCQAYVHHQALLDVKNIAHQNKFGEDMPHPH
Described as above. Type of data set: biochemical.

Data set [3] has as its system C42 (androgen-independent prostate cancer). The experiment in a line: Cell growth inhibition (CellTiter 96 AQueous One, MTS). The class given is cell-based. Particulars: C4-2; C42 cells, 48 hours; read-out: Proliferation IG50 C42. As to the method:
(§1) The cell lines used were PC-3 (prostate cancer), C42 (androgen-independent prostate cancer), LNCap (androgen-dependent prostate cancer), SQ20B (squamous cell carcinoma), MCF7 (breast cancer) and MDA-231 (breast cancer).
(§2) Cells were seeded at 5,000 per well in […] of growing medium in 96-well tissue culture plates. At 24 hours after seeding, a solution of the compound or DMSO vehicle control were added to each well to a total volume of […] (three replicates per concentration), and incubated for 48 hours at 37° C. Growth inhibition was determined using CellTiter 96® AQueous One Solution Cell Proliferation according to manufacturer's instructions (Technical Bulletin: CellTiter 96® AQueous One Solution Cell Proliferation Assay. Instructions for Use of Products G3580, G3581 and G3582; Promega, Inc. Madison, Wis., Revised 4/2005), and the absorbance measured at 490 nm on a microplate reader. The CellTiter 96® AQueous One Solution Cell Proliferation Assay is a colorimetric method for determining the number of viable cells in proliferation, cytotoxicity or chemosensitivity assays and contains a tetrazolium compound [3-(4,5-dimethylthiazol-2-yl)-5-(3-carboxymethoxyphenyl)-2-(4-sulfophenyl)-2H-tetrazolium, inner salt; “MTS”] and an electron coupling reagent (phenazine ethosulfate; PES). The MTS tetrazolium compound (Owen's reagent) is bioreduced by cells into a colored formazan product that is soluble in tissue culture medium. Assays are performed by adding a small amount of the CellTiter 96® AQueous One Solution Reagent directly to culture wells, incubating for 1-4 hours and then recording the absorbance at 490 nm with a 96-well plate reader. The quantity of formazan product as measured by the absorbance at 490 nm is directly proportional to the number of living cells in culture.
(§3) The 50% growth inhibition (IG50) was calculated as the compound concentration required to reduce cell number by 50% compared with control.

The test system of data set [4] is LNCap (androgen-dependent prostate cancer). Described as above. Type of data set: cell-based. The note with it: Homo sapiens; LNCap cells, 48 hours; read-out: Proliferation IG50 LNCap. As to the method: as §1, §2, §3
A further data set concerns MCF7 (breast cancer). The data set is described as above. The class given is cell-based. The note with it: Homo sapiens; MCF7 cells, 48 hours; read-out: Proliferation IG50 MCF7. The procedure:
as §1, §2, §3

The next data set has as its system MDA-231 (breast cancer). The description is as above. The class given is cell-based. The note with it: Homo sapiens, MDA-MB-231; MDA-231 cells, 48 hours; read-out: Proliferation IG50 MDA-231. The procedure: as §1, §2, §3
A further data set has as its system PC-3 (prostate cancer). The data set is described as above. Type of data set: cell-based. The note with it: Homo sapiens, PC3 cells, 48 hours, read-out: Proliferation IG50 PC3. As to the method: as §1, §2, §3
Data set [5] relates to SQ20B (squamous cell carcinoma). The data set is described as above. Type of data set: cell-based. The note with it: Homo sapiens; SQ20B cells, 48 hours; read-out: Proliferation IG50 SQ20B. As to the method: as §1, §2, §3
A further data set concerns LNCap cells. In words: Cell cycle distribution (propidium iodide, FACS). Type of data set: cell-based. Particulars: 24 hours after adding the compound. As to the method: (§4) LNCap and PC-3 cells were incubated in the presence or absence of compound. The cells were harvested at the indicated time points after addition of compound then washed twice with cold phosphate-buffered saline. Cells (1-2×10^6) were resuspended in 0.5 ml of ice-cold phosphate-buffered saline, and single cell suspension was verified microscopically. The cell suspension was gradually mixed with ice-cold absolute ethanol to the final volume of 2.0 ml, and cooled on ice at least for 20 min before staining with propidium iodide. The cell cycle distributions were measured in a fluorescence-activated cell sorter from Becton Dickinson. DNA content was quantified using ModFit LT 3.0 software (Verity Software House, Inc.).

Data set [6] concerns PC-3 cells. In words: Cell cycle distribution (propidium iodide, FACS). The class given is cell-based. Particulars: PC-3, 24 hours after adding the compound. The procedure:
as §4

For a further data set, the system named is DU145 cells. In words: Fluorescence imaging of compound localization in cells. The class given is cell-based, human. The note with it: DU-145 cells, for 60 minutes (FIG. 2). The procedure: (§5) Human prostate cancer cell lines PC-3 and DU145 cells were plated down onto glass slides at a density of 500,000 per slide and incubated overnight. […] The slides were then washed three times with phosphate-buffered saline. The cells were then fixed with a 4% solution of formaldehyde for ten minutes, washed four times with phosphate-buffered saline and mounted. For slides with nuclear staining, cells were treated with propidium iodide (1:1000) for 4 minutes after fixation, washed four times with PBS and mounted.
(§6) Propidium Iodide was imaged with an excitation wavelength of 535 and an emission wavelength of 617. Images were taken at 63×.

For data set [7], the system named is PC-3 cells. The data set is described as above. Type of data set: cell-based, human. Particulars: 20 μM. The procedure:
as §5, §6

The subject of a further data set is A549 (lung cancer) cells. In words: Imaging of tubulin acetylation. Type of data set: cell-based. The note with it: 20 μM, 60 minutes (FIG. 4), versus untreated control. The procedure: Images A, B, and C show the cells after treatment with the histone deacetylase inhibitor (20 μM) for 60 minutes. […] Image C is the DIC image, while image D is a merger of images A, B, and C.

For the next data set, the system named is A549 cells. In words: Imaging of histone acetylation. Type of data set: cell-based. The note with it: 20 μM, 60 minutes (FIG. 5), versus untreated control. The procedure: Images A, B, C and D show the cells after treatment with the histone deacetylase inhibitor (20 μM) for 60 minutes. […] Image C is the DIC image.
Another data set concerns the target T2, HDAC8 (Homo sapiens, UniProt Q9BY41).
T2 sequence (Q9BY41 1-377): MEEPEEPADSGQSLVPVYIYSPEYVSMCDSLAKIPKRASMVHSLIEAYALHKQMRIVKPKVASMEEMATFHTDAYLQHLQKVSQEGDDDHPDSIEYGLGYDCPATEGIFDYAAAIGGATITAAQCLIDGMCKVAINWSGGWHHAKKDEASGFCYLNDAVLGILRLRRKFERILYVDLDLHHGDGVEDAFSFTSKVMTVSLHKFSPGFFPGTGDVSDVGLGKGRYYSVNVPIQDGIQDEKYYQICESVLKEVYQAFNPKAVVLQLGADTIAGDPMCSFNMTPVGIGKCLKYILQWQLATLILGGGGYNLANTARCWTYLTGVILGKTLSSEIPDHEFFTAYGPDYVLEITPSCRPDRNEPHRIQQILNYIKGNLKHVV
The experiment in a line: biochemical.

The target in a further data set is HDAC4 (Homo sapiens, UniProt P56524). The note with it: PC3 cells, 1 μM, 24 hours (FIG. 6).
The mark [8] stands for this setting: HeLa nuclear extracts (Table 2), read-out: HDAC IC50.
Where [9] appears, read: HeLa nuclear extracts (Table 3), read-out: pan-HDAC IC50.

Like-named read-outs stand apart in the source and are kept apart here.

Sequence of HDAC2 (Q92769 whole entry, species assumed): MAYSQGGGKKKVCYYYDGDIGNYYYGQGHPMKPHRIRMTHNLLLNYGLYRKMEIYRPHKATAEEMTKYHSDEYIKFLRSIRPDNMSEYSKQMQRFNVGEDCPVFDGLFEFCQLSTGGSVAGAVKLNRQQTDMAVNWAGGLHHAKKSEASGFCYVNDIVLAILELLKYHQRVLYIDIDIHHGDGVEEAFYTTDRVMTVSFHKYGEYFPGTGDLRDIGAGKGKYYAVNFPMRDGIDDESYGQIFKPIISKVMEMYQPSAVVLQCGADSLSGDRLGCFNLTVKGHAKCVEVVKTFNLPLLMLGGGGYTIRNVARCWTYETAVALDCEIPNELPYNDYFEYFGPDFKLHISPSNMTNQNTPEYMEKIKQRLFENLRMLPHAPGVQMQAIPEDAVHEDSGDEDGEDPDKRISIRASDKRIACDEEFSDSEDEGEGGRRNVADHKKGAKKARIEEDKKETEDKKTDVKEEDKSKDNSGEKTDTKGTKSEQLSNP
Sequence of HDAC1 (Q13547 whole entry, species assumed, canonical isoform): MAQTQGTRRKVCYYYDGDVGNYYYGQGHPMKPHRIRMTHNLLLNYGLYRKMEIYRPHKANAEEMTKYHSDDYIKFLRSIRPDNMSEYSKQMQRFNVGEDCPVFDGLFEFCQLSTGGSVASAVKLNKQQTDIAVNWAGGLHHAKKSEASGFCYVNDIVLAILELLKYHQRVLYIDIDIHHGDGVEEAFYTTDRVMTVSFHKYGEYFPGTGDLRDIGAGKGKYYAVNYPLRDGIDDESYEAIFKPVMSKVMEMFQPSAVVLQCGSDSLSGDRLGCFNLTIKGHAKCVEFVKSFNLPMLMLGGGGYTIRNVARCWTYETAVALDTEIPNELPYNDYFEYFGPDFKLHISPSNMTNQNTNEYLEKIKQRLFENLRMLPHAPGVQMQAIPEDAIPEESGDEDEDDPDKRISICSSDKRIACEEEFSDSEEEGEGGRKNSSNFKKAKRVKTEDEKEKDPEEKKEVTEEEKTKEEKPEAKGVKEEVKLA
Sequence of HDAC3 (O15379 whole entry, species assumed): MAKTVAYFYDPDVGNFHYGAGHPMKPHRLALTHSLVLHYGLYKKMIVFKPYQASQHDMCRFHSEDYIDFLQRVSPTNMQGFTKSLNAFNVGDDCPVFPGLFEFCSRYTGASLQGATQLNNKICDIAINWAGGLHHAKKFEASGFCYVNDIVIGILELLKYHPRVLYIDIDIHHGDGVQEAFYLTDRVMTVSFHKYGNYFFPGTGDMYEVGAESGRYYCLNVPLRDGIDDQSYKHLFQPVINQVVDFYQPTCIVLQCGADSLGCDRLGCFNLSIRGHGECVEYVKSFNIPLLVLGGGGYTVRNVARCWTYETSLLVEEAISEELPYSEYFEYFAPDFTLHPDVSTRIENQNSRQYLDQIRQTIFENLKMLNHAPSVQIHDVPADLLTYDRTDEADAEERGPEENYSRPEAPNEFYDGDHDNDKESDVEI
Sequence of HDAC3 (O75376 395-489 partner limits assumed, species assumed): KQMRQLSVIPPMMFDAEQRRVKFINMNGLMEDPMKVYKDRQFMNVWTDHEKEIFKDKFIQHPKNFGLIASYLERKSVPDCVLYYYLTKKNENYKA
Sequence of HDAC4 (P56524 whole entry): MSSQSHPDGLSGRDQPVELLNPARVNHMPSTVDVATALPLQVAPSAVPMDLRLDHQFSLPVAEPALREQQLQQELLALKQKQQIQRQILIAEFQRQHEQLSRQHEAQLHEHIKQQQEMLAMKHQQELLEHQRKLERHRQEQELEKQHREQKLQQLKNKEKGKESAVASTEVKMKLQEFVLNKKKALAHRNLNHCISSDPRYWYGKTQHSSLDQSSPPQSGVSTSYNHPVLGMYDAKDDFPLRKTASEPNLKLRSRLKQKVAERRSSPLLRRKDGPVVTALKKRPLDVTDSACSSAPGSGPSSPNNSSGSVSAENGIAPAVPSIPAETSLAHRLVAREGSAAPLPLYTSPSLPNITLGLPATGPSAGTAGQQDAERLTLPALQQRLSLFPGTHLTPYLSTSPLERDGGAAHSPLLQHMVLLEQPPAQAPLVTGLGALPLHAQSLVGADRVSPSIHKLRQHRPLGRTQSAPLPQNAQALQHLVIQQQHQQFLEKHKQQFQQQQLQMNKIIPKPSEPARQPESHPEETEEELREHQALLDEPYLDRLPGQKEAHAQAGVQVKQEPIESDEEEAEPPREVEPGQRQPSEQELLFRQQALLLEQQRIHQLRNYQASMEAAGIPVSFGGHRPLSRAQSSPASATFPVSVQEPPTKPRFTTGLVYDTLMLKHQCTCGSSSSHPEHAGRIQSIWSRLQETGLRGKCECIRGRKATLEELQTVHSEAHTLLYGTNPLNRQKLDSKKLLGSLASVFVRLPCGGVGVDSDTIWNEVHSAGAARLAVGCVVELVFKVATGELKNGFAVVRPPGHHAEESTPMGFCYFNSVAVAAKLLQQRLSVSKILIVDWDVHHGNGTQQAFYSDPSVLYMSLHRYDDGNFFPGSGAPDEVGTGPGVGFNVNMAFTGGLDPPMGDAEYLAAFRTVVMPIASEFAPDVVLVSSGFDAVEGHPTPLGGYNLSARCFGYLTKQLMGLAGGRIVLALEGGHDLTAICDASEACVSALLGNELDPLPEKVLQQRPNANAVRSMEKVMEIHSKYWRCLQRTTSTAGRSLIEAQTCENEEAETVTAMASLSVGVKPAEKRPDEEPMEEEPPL
Method for HDAC4: Human prostate cancer PC3 cells were cultured in Dulbecco's Modified Eagle's Medium (DMEM) with 5% serum at 37° C. over night. […] Control cells were incubated in the absence of test compound.
After 24 hours, the cells were washed with phosphate-buffered saline (1×) one time, and fixed with 4% percent of paraformaldehyde for 15 min. Non specific binding was blocked with 10% normal goat serum in phosphate-buffered saline containing 0.2% tween-20 (sigma aldrich P7949) for 1 hour. Cells were treated with mouse monoclonal anti-HDAC4 antibody (Sigma Aldrich H0163) 1:200 dilution in 5% goat serum in PBS for 1 hour at room temperature. The cells were washed three times with phosphate buffered saline (1×). […] The cells were washed with phosphate-buffered saline (1×) three times. Vecta shield mounting medium for florescence with DIPA (Vector laboratory H-1200) were loaded on the cells and covered with cover glass. The cells were then treated with HDAC4 antibody to visualize HDAC4 and with 4′,6-diamidino-2-phenylindole (DAPI) to visualize the nuclei.
Fluorescence microscopy was used to observe the immunohistostaining results.

For `CN(C)c1cccc2c(S(=O)(=O)NCCCCCC(=O)NO)cccc12` [Example 1, 6-(5-(Dimethylamino)naphthalene-1-sulfonamido)-N-hydroxyhexanamide], the “Emiss (emission wavelength)” value in [1] was 500 nm. Also, the “Exc (excitation wavelength)” value in data set [1] stood at 320 nm. Besides, the IC50 in [2] (setting [8]) is 125 nM; in data set [2] (setting [9]), 125 nM; at HDAC1, 956 nM; on HDAC2 it was 1380 nM; against HDAC3 it was 1120 nM; against HDAC6 it was 129 nM. For the same molecule, the IC50 in data set [3] is 1.91 nM; in [4], 1.22 nM; in the data set with MCF7 (breast cancer) it was 9.2 nM; in the data set with MDA-231 (breast cancer), 12.2 nM; in the data set with PC-3 (prostate cancer) it was 1.54 nM; in [5] it was 6.42 nM. Also, at HDAC8, the IC50 is 2900 nM. Further, the “Cell cycle distribution G1” value with LNCap cells was 85.23%; with PC-3 cells [6], 64.35%. Besides, the “Cell cycle distribution G2” value is 5.59% in the data set with LNCap cells and 15.74% with PC-3 cells [6]. Moreover, the “Cell cycle distribution S” value in the data set with LNCap cells turned out to be 9.18%; in the data set with PC-3 cells [6], 19.91%. Also, the “Localization of compound fluorescence in cells” value in the data set with DU145 cells is reported as “seen fluorescing (green fluorescence) in the cytoplasm”; in the data set with PC-3 cells [7] (PC-3 cells, 60 minutes (FIG. 2)) it was “present in the cytoplasm but not the nucleus of cells”. Also, in the data set on PC-3 cells [7] (PC3 cells, 60 min (FIG. 3)), the “Co-localization with nuclei stained with propidium iodide” value is “does not localize to nuclei”. In addition, in the data set with A549 (lung cancer) cells, the “Tubulin acetylation in the cytoplasm” value is recorded as “increased tubulin acetylation”. For the same molecule, the “Histone acetylation in the nucleus” value in the data set on A549 cells was “increased nuclear histone acetylation”.

Turning to `CN(C)c1cccc2c(S(=O)(=O)NCCCCC(=O)NO)cccc12` [Example 2], the IC50 in data set [2] (setting [8]) turned out to be 287 nM.

`CN(C)c1cccc2c(S(=O)(=O)NCCCCCCC(=O)NO)cccc12` [Example 3]: the IC50 in data set [2] (setting [8]) was 116 nM; in data set [2] (setting [9]) it was 116 nM; on HDAC1, 1290 nM; against HDAC2, 7400 nM; against HDAC3 it was 4890 nM; on HDAC6 it was 76.2 nM.

For `CN(C)c1cccc2c(S(=O)(=O)NCCCCCCCC(=O)NO)cccc12` [Example 4], the IC50 in data set [2] (setting [8]) was determined as 208 nM.

Take `O=C(CCCCCCC(=O)Nc1ccccc1)NO` [SAHA, suberoylanilide hydroxamic acid, reference compound]: in the data set on PC-3 cells [6], the “Cell cycle distribution G1” value stood at 72.28%, the “Cell cycle distribution G2” value was determined as 13.39% and the “Cell cycle distribution S” value is listed as 14.33%. Moreover, at HDAC4, the “HDAC4 distribution between cytoplasm and nuclei” value is recorded as “traps HDAC4 in the cytoplasm of the cells”.

For the origin of these results see patent US8293513B2, “Histone deacetylase inhibitors” (Georgetown University, priority 2007, dated 2012).
